In general, IC50 refers to the concentration at which inhibition is half-maximal. Higher therefore signals lower potency.

Several values for one entry are separate records, joined by “and”; a condition that tells them apart may be missing. Equal values may be shown once.

For 84 molecules, IC50 results are on record in PubChem BioAssay AID2305 (GlaxoSmithKline (GSK), 2010).

The assay deals with P. falciparum 3D7 growth, pLDH absorbance. As to the kind of experiment: blood-stage malaria parasite growth potency – strain 3D7, dose response (AID 2305).
With `COc1cc(Nc2ncc3c(C)nc(-c4cccc(Nc5ccc(CN6CCS(=O)(=O)CC6)cc5)c4)n3n2)cc(OC)c1OC`, the IC50 was 0.87 µM. With `O=C(NCC1CCC(C(=O)NCc2cccc3ccccc23)CC1)c1ccc(O)c(-c2ccc(Cl)c(Cl)c2)c1` (centres undefined), the IC50 stood at 0.75 µM. This IC50 and that of the molecule before are within 1.5-fold of each other. Consider `O=C(Nc1cccc(CN2CCN(Cc3cccc(O)c3)CC2)c1)c1ccc(Cl)c(Cl)c1`, for which the IC50 came out at 0.41 µM. Against the preceding molecule, the IC50 is about 1.8-fold lower. The molecule `CC1CCCCC1N(C)C1CCN(CCCNC(=O)C=Cc2ccc(Cl)cc2Cl)CC1` (centres undefined) came in with an IC50 of 0.65 µM. `COc1ccc2c(CNCCCCCCNCc3c(OC)ccc4cc(OC)ccc34)c(OC)ccc2c1`: the IC50 stood at 0.56 µM. This IC50 and that of the molecule before are within 1.5-fold of each other. Then `CC(=O)Nc1ncc(C(=O)Nc2cccc(-c3ccc(-c4nc5ccc(F)cc5[nH]4)cc3)c2)s1`, with 0.62 µM; and `OCCN1CCN(Cc2ccc(-c3ccc(-c4nc5ccc(C(F)(F)F)cc5[nH]4)s3)cc2)CC1`, with 0.38 µM.

`Cc1nn(-c2ccccc2)c2nc(-c3ccccc3)cc(C(=O)N3CCOCC3)c12` came in with an IC50 of 0.87 µM. Then `COc1ccccc1CNC(=O)c1ccc(N2CCN(c3ccncc3)CC2)cn1`, with 1.36 µM. Molecule `O=C(NCc1ccc(F)cc1)Nc1ccc(-c2cccc(-c3nc4ccc(C(F)(F)F)cc4[nH]3)c2)cc1` displayed an IC50 of 0.95 µM. This IC50 and that of the molecule before are within 1.5-fold of each other.

`CNCCCCCCc1ccc(CC(C)NCC(O)c2cccc(Cl)c2)cc1` (centres undefined) gave an IC50 of 0.85 µM. Then `CCn1ccc2c(N3CCCCS3(=O)=O)cc(C(=O)N[C@@H](Cc3ccccc3)[C@H](O)CNC(C)(C)c3cccc(C(F)(F)F)c3)cc21`, with 0.13 µM; and `CCN(CC)CCN(Cc1ccc(-c2ccc(C(F)(F)F)cc2)cc1)C(=O)Cn1cc(CCCCc2cccc(F)c2F)c(=O)c2ccccc21`, with 0.88 µM. `CCOc1ccc(C(Cc2ccccc2)NC(=O)c2cccnc2)cc1OCC` (centres undefined) had an IC50 of 0.77 µM. The same measure for `O=C(Cn1c(SCc2cccc(F)c2F)cc(=O)c2ccccc21)N(CCCn1ccnc1)Cc1ccc(-c2ccc(C(F)(F)F)cc2)cc1`: 1.32 µM; for `CCOC(=O)c1cnc2c(OC)cc(OC)c(Cl)c2c1Nc1cccc(C)c1C`: 0.31 µM; for `COc1ccc(-c2cn3c(C(=O)Nc4ccccc4Cl)c(-c4ccccc4)c4c3n2CCCC4)cc1`: 0.79 µM. Molecule `COc1ccc(-n2nc(C(=O)NCc3ccccc3OC)c3ccccc3c2=O)cc1` had an IC50 of 0.22 µM. This IC50 is about 3.6-fold lower than that of the molecule before. As for `COc1ccc(-c2cc(C(=O)N3CCc4ccccc43)c3ccccc3n2)cc1OC`, the IC50 was found to be 0.33 µM. The same measure for `CN(C(=O)c1nn(-c2ccccn2)c2nccc(-c3cccs3)c12)C1CCCCC1`: 1.24 µM. `Fc1ccccc1C=NNc1ccnc2ccc(C(F)(F)F)cc12` displayed a 50% inhibitory concentration (IC50) of 0.87 µM. The IC50 values of the last two molecules are within 1.5-fold of each other.

In turn, `CCCN(C(=O)c1ccccc1C)c1nnc(-c2ccccc2C)s1` had an IC50 of 1.11 µM. The molecule `Cn1c(=O)c2cc(C(=O)NCCCN3CCCCCC3)sc2c2ccccc21` came in with an IC50 of 0.69 µM. Then `Cc1cc(CN2CC[C@H](NC(=O)c3ccc(Cl)c(Cl)c3)C2)ccc1OCCN1CCNCC1`, with 0.94 µM. Turning to `Cn1cc(C2CCN(CCCCNC(=O)c3ccc(-c4ccc(C(F)(F)F)cc4)c(CO)c3)CC2)c2ccccc21`, the IC50 amounted to 1 µM. `Cc1cc(=O)c(-c2ccc(Oc3ccc(Cl)cc3Cl)cc2)c(C)[nH]1` had an IC50 of 0.84 µM. As to `O=C(NCCN1CCOCC1)c1ccc(O)c(-c2cccc(C(F)(F)F)c2)c1`, the IC50 was 0.75 µM. The same measure for `Cc1ccc(C)c2c1[nH]c1ccc(C3=NCCN3)cc12`: 0.5 µM; for `CC(CN1CCN(C)CC1)C(=O)Nc1cccc(-c2cccc(-c3nc4ccc(F)cc4[nH]3)c2)c1` (centres undefined): 0.27 µM. Then `CCN(CC)CCN(Cc1ccc(-c2ccc(C(F)(F)F)cc2)cc1)C(=O)Cn1c(CCc2cccc(F)c2F)nc(=O)c2ccccc21`, with 0.67 µM; and `COC(=O)c1cccc(N2CCN(CCCNC(=O)/C(=C/C=C/c3cc4cc(Cl)c(Cl)cc4[nH]3)OC)CC2)c1`, with 0.67 µM; and `CC(C)Oc1ccc(C=CC(=O)Nc2noc3ccccc23)cc1`, with 0.29 µM. The same measure for `O=C(Nc1cc(Cl)cc(Cl)c1)c1cnn(-c2ccc(F)cc2)c1C1CCNCC1`: 0.85 µM; for `CS(=O)(=O)c1ccc(CCNCc2ccc(-c3ccc(CN(C(=O)C4CC(=O)c5ccccc54)C4Cc5ccccc5C4)cc3)nc2)cc1` (centres undefined): 0.86 µM.

Molecule `COc1ccc2ncc(F)c(CCN3C[C@H](CNCc4cc(C#N)c5c(c4)OCCO5)[C@H](O)C3)c2n1` displayed an IC50 of 0.58 µM.

Turning to `NC(N)=NC(=O)Nc1ccc(Cl)c(Cl)c1`, the half-inhibitory concentration (IC50) is 1.04 µM. For `Cc1cc(N(C)C2CCN(CC3CCCCC3)C2)nc(Nc2ccc(Cl)cc2)n1` (centres undefined), the IC50 came to 0.68 µM.

On to `CNCCNCc1cccc(-c2ccc(-c3nc4ccccc4[nH]3)cc2)c1`, for which the half-inhibitory concentration (IC50) came to 0.74 µM. The IC50 values of the last two molecules are within 1.5-fold of each other. `C=C[C@]1(C)C[C@@H](OC(=O)CNC[C@@H](O)CN2C[C@H](c3ccnc4ccc(OC)nc34)OC2=O)[C@]2(C)[C@H](C)CC[C@]3(CCC(=O)[C@H]32)[C@@H](C)[C@@H]1O` had an IC50 of 0.95 µM. `CCN(CC)CCCN(C(=O)c1cc2c(C)nn(-c3ccccc3)c2s1)c1nc(-c2ccc(OC)cc2)cs1` came in with an IC50 of 1.15 µM. `COc1ccc2cc(C(=O)NC3CCC(CCN4CCc5cc(C#N)ccc5C4)CC3)[nH]c2c1` (centres undefined) showed an IC50 of 1.01 µM. For `COc1cccc(NC(=O)c2ccc(NCCCN3CCC(C)CC3)c([N+](=O)[O-])c2)c1`, the IC50 turned out to be 0.77 µM. `O=c1cc(NCCCNCc2csc(Br)c2Sc2ccc(Cl)cc2)[nH]c2ccccc12`: the IC50 is 0.85 µM. As for `COCCN(CCOC)c1ncc(-c2ccsc2)c(-c2nc(C)c(C)s2)n1`, the IC50 stood at 0.84 µM. Molecule `COc1ccc(CNC(=O)c2cnc3cc(-c4c(C)noc4C)ccc3c2Nc2ccccc2C(C)(C)C)cc1` displayed an IC50 of 1.3 µM.

Turning to `CCCOc1ccc(CCNCCCCNCCc2ccc(OCCC)c3ccccc23)c2ccccc12`, the IC50 amounted to 0.92 µM. The molecule `CC(C)(C)c1ccc(CNC(=O)/C=C/c2ccc(CNC3CCNCC3)cc2)cc1` displayed an IC50 of 1.09 µM. Then `C[C@@H]1CN(c2cnn(C/C=C/c3ccc(NC(=O)c4ccc5nonc5c4)cc3)c(=O)c2Cl)C[C@H](C)N1`, with 0.79 µM. As for `Nc1ccc(Nc2ccnc3ccc(C(F)(F)F)cc23)cc1O`, the IC50 was determined as 0.72 µM.

`CCN(CC)CCCC(C)Nc1cc(C=Cc2ccc([N+](=O)[O-])cc2)nc2ccc(OC)cc12` (centres undefined) had a concentration for half-maximal inhibition (IC50) of 0.57 µM. Molecule `COc1ccc(C2CCN(CCN3CCC(NC(=O)c4ccc(-c5cccc(C(F)(F)F)c5C(F)(F)F)cc4)CC3)CC2)c(OC)c1` gave an IC50 of 0.42 µM. The IC50 values of the last two molecules are within 1.5-fold of each other. `CN=C(NC)c1cccc(NC(=O)C=Cc2ccc(C=CC(=O)Nc3cccc(C(=NC)NC)c3)cc2)c1` registered an IC50 of 0.16 µM. Then `Cc1cccc(NC(=O)c2ccc(C(=O)NC3CCN(CC4CCCCC4)CC3)cc2)c1`, with 0.81 µM; and `N#Cc1ccc2c(c1)CN(CCCCNC(=O)c1ccc(-c3ccccc3)cc1)CC2`, with 0.89 µM.

As to `NC1=NC(CCc2ccccc2)N(c2ccc(Cl)cc2)C(N)=N1` (centres undefined), the IC50 was found to be 0.04 µM. The same measure for `COc1ccc2nccc([C@@H](O)CN3CCC(NCc4ccc5cccc(O)c5n4)CC3)c2c1`: 1.13 µM. Then `Cc1cccc2[nH]c(-c3ccc(-c4ccc(CNCCN5CCNCC5)cc4)s3)nc12`, with 1.15 µM.

Consider `O=C(CCN1CCCCC1)Nc1ccc(Nc2nccc(NCC(O)c3ccccc3)n2)cc1` (centres undefined), for which the concentration for half-maximal inhibition (IC50) is 0.72 µM. Against the preceding molecule, the IC50 is about 1.6-fold lower.

`C[C@H]1CN(Cc2cccc(-c3cc(CNC(=O)c4cccc(CN5CCN(C/C=C/c6ccccc6)CC5)c4)ccc3F)c2)CCN1` gave an IC50 of 0.85 µM. Then `Cc1noc(C)c1-c1cccc(CNCc2cccc(-c3ccc(-c4nc5ccc(C(F)(F)F)cc5[nH]4)s3)c2)c1`, with 0.17 µM. `CCCC1N=C(N)N=C(N)N1c1ccc(OC)cc1` (centres undefined): the half-maximal inhibitory concentration (IC50) turned out to be 0.23 µM. With `CC(C)C(C(=O)n1ncc2c3c(N)nc(N)nc3ccc21)C(C)C`, the IC50 came out at 0.65 µM. The same measure for `CCCCOC(=O)c1ccc(NC(=O)Nc2ccc(Cn3ncc(N4CCCNCC4)c(Cl)c3=O)cc2)cc1`: 0.74 µM; for `C=C(C)C1CC=C(CN2CCC(N3CCc4cc(NC(=O)c5cc(C)on5)ccc43)C2)CC1` (centres undefined): 0.71 µM.

`Fc1cccc(Nc2nc(NCc3ccc(Cl)c(Cl)c3)nc(Nc3cccc(F)c3)n2)c1` registered an IC50 of 0.75 µM. This IC50 and that of the molecule before are within 1.5-fold of each other.

For the molecule `COc1ccc(-c2nc(NC(=O)CS(=O)(=O)c3ccc(F)cc3)sc2C)cc1`, the IC50 came out at 0.24 µM. Molecule `O=C(Nc1ccc(Oc2ccccc2)cc1)N(Cc1ccc(-c2cccc(CN3CCNCC3)c2)cc1)C1CCN(Cc2ccccc2)CC1` gave a half-inhibitory concentration (IC50) of 0.88 µM. The same measure for `CN(C)CCNCc1nc(-c2ccc3c(Nc4ccc(Cl)cc4F)ccnc3c2)cs1`: 0.81 µM. Take `Cc1ccoc1C(=O)Nc1cccc(-c2cccc(-c3nc4ccc(C(F)(F)F)cc4[nH]3)c2)c1`: the IC50 came to 0.61 µM. Then `Nc1cccc(CNCc2cccc(-c3cccc(-c4nc5ccc(F)cc5[nH]4)c3)c2)c1`, with 0.69 µM. As for `CSc1nccc(-c2ccc(S(=O)(=O)NC3CCC(CN4CCC(c5c[nH]c6ccccc56)CC4)CC3)s2)n1` (centres undefined), the IC50 is 0.25 µM and 0.81 µM.

Molecule `CN(C)Cc1ccc(-c2cccc(Nc3nccc(NCC(O)c4ccccc4)n3)c2)cc1` (centres undefined) returned an IC50 of 0.37 µM. `COc1ccc(-c2nonc2NC(=O)c2ccc(C(C)(C)C)cc2)cc1OC` came in with a 50% inhibitory concentration (IC50) of 0.81 µM. Molecule `CC(C)Cc1cnc2nc(N)nc(N)c2c1` showed an IC50 of 0.49 µM.

The molecule `CN1CCN(c2ccc(-c3cccc(NC(=O)c4cccc(Cl)c4)c3)nn2)CC1` had an IC50 of 0.58 µM. This IC50 and that of the molecule before are within 1.5-fold of each other.

Take `Cn1cncc1-c1cc2c(Nc3ccc(OCc4ccccc4)cc3)ncnc2cn1`: the IC50 came to 0.27 µM. Then `CC(C)CN1CCCN(Cc2cccc(NC(=O)c3ccc(Cl)c(Cl)c3)c2)CC1`, with 0.89 µM; and `O=C(C=Cc1ccc(Cl)c(Cl)c1)NCCCCCN1CCCC(CCCNC(=O)c2sc3ccccc3c2Cl)C1` (centres undefined), with 1.03 µM. The same measure for `COc1ccc2nccc([C@@H](O)CN3CCC(NCc4ccc5nsnc5c4)CC3)c2c1`: 0.96 µM; for `CC(C)(C)c1ccc(CN2CCC(CNC(=O)c3cc(-c4ccccc4F)cs3)C2)cc1` (centres undefined): 0.56 µM. The same measure for `COc1ccc(C(=O)Nc2ccc(-c3nc4ccc(C)cc4[nH]3)cc2)cc1OC`: 0.76 µM. Take `NC(N)=NC(=O)Nc1cc(Br)c(Br)c(Br)c1`: the IC50 turned out to be 0.81 µM. The same measure for `COc1cc(Cc2cnc(N)nc2N)cc(OCCCCCC(=O)O)c1OC`: 0.23 µM.

For the molecule `O=C(/C=C/c1ccc(Cl)c(Cl)c1)N1CCC(CN2CCC(c3c(Br)[nH]c4ccccc34)CC2)CC1`, the IC50 turned out to be 0.29 µM.
